# Tested on: human PBMC
# Experiment: lymphocyte proliferation, 3H-thymidine incorporation
# Type: cell-based
# Procedure: Human PBMC were isolated from peripheral blood obtained from healthy donors. Cells were washed twice and were placed in triplicate wells at a concentration of 1×10^5 cells/ml in serum-free RPMI-1640 supplemented with 100 U of both penicillin and streptomycin. Drug treatments were added 15 minutes before stimulation of the cells and were present throughout the 1 hour stimulation period. Stimulation by mitogen (1 μg/ml PHA) in combination with 10 nM phorbol dibutyrate (PDB) was carried out for 1 hour at 37° C. Cells were subsequently washed 3 times with RPMI and were resuspended at a concentration of 1×10^5 cells/ml in RPMI-1640 supplemented with 5% FBS and 100 U/ml of penicillin and 100 μg/ml streptomycin. For the 48 hour proliferation phase, cells were cultured with (Ca^2+-independent proliferation) or without (Ca^2+-dependent proliferation) 10 nM PDB. 1 μCi of [^3H]-Thymidine (6.7 Ci/mmol; New England Nuclear, Boston, Mass.) was added to each well for the final 16 hours of the assay and at 48 h the cells were harvested and incorporated ^3H was counted by liquid scintillation counting.
smiles,measurement,setting,value
"CC(Cc1ccc(O)c(O)c1)C(C)Cc1ccc(O)c(O)c1 (stereo not drawn) [NDGA, 4,4′-(2,3-dimethyl-1,4-butanediyl)bis[1,2-benzenediol]]",IC50,"Ca^2+-dependent protocol (PHA/PDB 1 h, then medium 48 h), n=6, read-out: IC50 for inhibition of proliferation",~3000 nM
same,effect on Ca^2+-independent proliferation,PHA/PDB 1 h then PDB 48 h,no effect
same,effect on Ca^2+-dependent proliferation,PHA/PDB 1 h then medium alone 48 h,inhibited proliferation

# — patent US6413967B1, “Inhibition of novel calcium entry pathway in electrically non-excitable cells acting as an anti-proliferative therapy” (The University of Virginia Patents Foundation, priority 1995, dated 2002)
